Holding throughout (format): cell-based
The subject of experiment [1] is Hela cells. The experiment is described as follows: fluid phase endocytosis assay (BODIPY-FL dextran internalization). Conditions: for number of endosomes relative to the control: BODIPY-FL dextran 20 min at 37° C., FIG. 3b; for integrated fluorescence intensity per cell relative to the control: data not shown. The procedure:
For the fluid phase endocytosis assay, Hela cells in 96 well plates were washed and incubated for 120 min with the compounds in serum free buffered medium under tissue culture conditions. The medium was then replaced with serum-free buffered medium supplemented with 1 mg/ml BODIPY-FL-Dextran and 10 μM Syto60. Cells were incubated for 20 min at 37° C., then placed on a cooled block and washed extensively with ice cold phosphate buffered saline 10% w/v bovine serum albumin (Serva; Heidelberg, Germany). Plates were imaged by the Opera using 488/633 nm excitation, 3 μm focus height above the coverslip, 1000 ms or 500 ms exposure and 510 nm (50 nm bandpass) or 680 (50 nm bandpass) filters, respectively.
Fluid phase endocytosis was measured using custom written scripts in Metamorph. Cells were identified in the 633 nm excitation SYTO60 image, the nuclei segmented and cells counted. A mask was generated from this image and used to identify cells in overlay of the 488 nm BODIPY-FL dextran image, to create regions of interest around the cell borders and excise them from the image. Background was deducted from the processed BODIPY-FL dextran image that was thresholded to identify endosomes as individual regions of interest. Image pairs with less than 300 cells per field of view were rejected.
A fluid phase endocytosis assay measured the internalization of green fluorescent 40 kDa BODIPY-FI dextran. Dextrans are ideal endocytotic markers for labelling endosomes and macropinosomes. In this assay, endosomes labelled with fluorescent dextran by internalization were readily identified with the Opera instrument (FIG. 2b). Dextran internalization satisfied all the classical prerequisites for an internalization assay—it was temperature dependent, arrested at 4° C. (FIG. 2a), and required a source of energy in the medium. Endocytosis was quantified by analysis of paired images of cells labelled with green dextran and the SYTO60 nuclear counter stain. The analysis was validated on cells that had internalized green fluorescent dextran for 20 min at 37° C. or at 4° C. (FIG. 2c).
To identify compounds affecting GPCR internalization and not affecting housekeeping endocytosis, the kinase and phosphatase inhibitor collection was screened against the fluid phase endocytosis assay (FIG. 3b). The effect of the compounds was evaluated. Four compounds (staurosporine, tyrphostin 9, AG-879, GF 109203×) were identified that reduced the number of endosomes (FIG. 3b) and the integrated intensity per cell relative to the control (data not shown).

In experiment [2] the test system is human endothelin A receptor. Kind of experiment: ETAR (GPCR) internalization assay, ETAR-EGFP in stably transfected HEK 293 cells. Conditions: for receptor trafficking morphology observed (visual screen of primary hits): stimulation with 40 nM endothelin-1, FIG. 4. An excerpt: A human endothelin A receptor cDNA clone in pCDNA3.1(−) (Invitrogen Carlsbad, USA) was excised via KpnI/HindIII and fused to the egfp coding sequence of the pEGFP-N1 vector (Clontech, Palo Alto USA) by splice overlap PCR using specific primers. The amplified fragment was digested via KpnI/EcoRV and ligated in the pCDNA3.1(−) vector digested with the same combination of restriction enzymes. The resulting pETAR-EGFP DNA was cloned, checked by sequencing and used for transfection of HEK 293 cells using standard protocols. A recombinant clone was obtained through several cycles of genetecin selection and limiting dilutions. For screening, cells were passed onto coverslip bottomed 96 well plates (Greiner; Longwood, USA, or Whatman; Brentford, UK) at a density of 4·10^3 cells/well for Hela and 2·10^4 cells/well for HEK293 cells, 48 hours in advance.
For the GPCR internalization assay, recombinant HEK cells grown were plated in 96 well plates and incubated overnight in DMEM/F12 containing 10% FBS. The plates were washed and the cells incubated for 120 min under tissue culture conditions with the compounds in 1% serum medium. The compound solutions were then exchanged for a solution with the same compound concentration and supplemented with 40 nM endothelin-1 and 10 μM Syto60. Cells were incubated for 120 min at 22° C. Plates were imaged by the Opera using 488/633 nm excitation, 3 μm focus height above the coverslip, 250 ms or 500 ms exposure and 510 nm (50 nm bandpass) or 680 (50 nm bandpass) filters, respectively. Typically, 5 image pairs (at 488 and 633 nm excitation) per well were acquired.
GPCR translocation was evaluated using scripts within the Acapella script player software environment of the Opera. The script measured translocation of the ETAR-EGFP fusion protein from the plasma membrane into recycling endosomes. Cells were first located in the 633 nm excitation SYTO60 image. Red fluorescent nuclei were identified by thresholding and edge seeking and then segmented to create a mask. The number of cells was counted and the nuclei mask used to generate a new cytoplasmic mask. Subsequently, each cell was individually segmented and cells with at least one bright recycling endosome were identified. Image analysis was performed on- and offline and analyses were rejected if the cell count was beneath 100 per field of view.
The endothelin A GPCR internalization screen was carried out using a stably transfected HEK 293 cell line expressing a fusion protein between the ETAR and a c-terminal copy of the enhanced green fluorescent protein. […] This internalization event was used as the basis for measuring trafficking of the receptor by image analysis. Serum deprived cells were stimulated with endothelin-1 at several concentrations and simultaneously counterstained with DRAQ5 or SYTO60, which are long wavelength excitable DNA and nucleic acid stains, respectively. The cells were stimulated for 120 min at 22-23° C., then imaged on the Opera automated confocal imaging reader. Images of the GFP and red counterstain fluorescence were automatically recorded and used to determine the number of cells where internalization of the receptor had occurred.
Cells were pre-treated with 10 μM compound before stimulation with 40 nM endothelin-1 to ensure a uniform and robust internalization response for the receptor.

For experiment [3], the system named is ETAR internalization and fluid phase endocytosis. Kind of experiment: Overlap of the ETAR internalization and the fluid phase endocytosis screen. Conditions: FIG. 3b. The source says: Overlap of the ETAR internalization and the fluid phase endocytosis screen was used to generate differential information from the two assays.
The mark [4] stands for this setting: secondary screen 0.1 μM to 50 μM, FIG. 5.

Each structure is given as a SMILES string.

For the compound `CC(C)(C)c1cc(/C=C(\C#N)C(N)=S)cc(C(C)(C)C)c1O` [AG-879], the “number of endosomes relative to the control” value in experiment [1] is “reduced”. In addition, the “integrated fluorescence intensity per cell relative to the control” value in experiment [1] (BODIPY-FL dextran) is recorded as “reduced”.
Regarding `CC(C)(C)c1cc(C=C(C#N)C#N)cc(C(C)(C)C)c1O` [tyrphostin 9], in experiment [1], the “number of endosomes relative to the control” value was “reduced”. The “integrated fluorescence intensity per cell relative to the control” value in experiment [1] (BODIPY-FL dextran) is “reduced”.
For `O=S(=O)(NCCNC/C=C/c1ccc(Br)cc1)c1cccc2cnccc12` [H-89], the “receptor trafficking morphology observed (visual screen of primary hits)” value (from here on “receptor trafficking morphology observed”) in experiment [2] (10 μM compound) is reported as “enhanced accumulation in the recycling endosome”. The “comparison of the responses in the ETAR internalization and fluid phase endocytosis assays” value (“comparison of the responses” for short) in experiment [3] is recorded as “large difference”.
On the same counts, the results for `Cn1cc(C2=C(c3cn(CCCSC(=N)N)c4ccccc34)C(=O)NC2=O)c2ccccc21` [Ro 31-8220] are “arrest of the receptor at the plasma membrane” and “large difference”.
For the compound `COC(=O)/C=C/c1cc(O)ccc1O` [erbstatin analogue], the “receptor trafficking morphology observed” value in experiment [2] (10 μM compound) is “arrest of the receptor in small vesicular bodies”. Besides, in experiment [3], the “comparison of the responses” value is reported as “large difference”.
`O=C1Nc2ccc(I)cc2/C1=C/c1cc(Br)c(O)c(Br)c1` [GW 5074]: the “hit classification in the primary screen” value in experiment [2] (10 μM compound, 40 nM endothelin-1, FIG. 3b) is listed as “partial hit”. In experiment [2] (setting [4]), the “concentration at which effect on GPCR internalization was seen (secondary screen)” value was 50 µM. Besides, in experiment [2] (versus untreated endothelin-1 stimulated control cells, FIG. 4d), the “effect on accumulation of the receptor in recycling endosomes” value was “delayed accumulation of the receptor in the recycling endosomes”. In experiment [3], the “comparison of the responses” value is given as “large difference”.
Take `O=c1c(-c2ccc(O)cc2)coc2cc(O)cc(O)c12` [genistein]: the “number of endosomes relative to the control” value in experiment [1] is “increased”. For the same compound, the “integrated fluorescence intensity per cell relative to the control” value in experiment [1] (BODIPY-FL dextran) is “significantly increased”.
With `CN[C@@H]1C[C@H]2O[C@@](C)([C@@H]1OC)n1c3ccccc3c3c4c(c5c6ccccc6n2c5c31)C(=O)NC4` [staurosporine], in experiment [1] (BODIPY-FL dextran), the endosomal pixel intensity entry is recorded as “slightly increased” and the “integrated fluorescence intensity per cell relative to the control” value was “reduced”. Further, the “number of endosomes relative to the control” value in experiment [1] is given as “reduced”. Besides, in experiment [2] (10 μM compound), the “receptor trafficking morphology observed” value was “arrest of the receptor at the plasma membrane”. Besides, in experiment [2] (setting [4]), the “effective concentration for blocking GPCR internalization (secondary screen)” value came out at 100 nM. Moreover, the “comparison of the responses” value in experiment [3] is recorded as “congruent in both assays”.
For the compound `CN(C)CCCn1cc(C2=C(c3c[nH]c4ccccc34)C(=O)NC2=O)c2ccccc21` [GF 109203X], the “number of endosomes relative to the control” value in experiment [1] is “reduced”. Also, the “integrated fluorescence intensity per cell relative to the control” value in experiment [1] (BODIPY-FL dextran) is on record as “reduced”. Moreover, the “comparison of the responses” value in experiment [3] is on record as “congruent in both assays”.
A word on the EC50: it is the concentration giving half of the maximal effect. In the case of `CC[C@H](C)[C@H](NC(=O)[C@H](CC(=O)O)NC(=O)[C@H](CC(C)C)NC(=O)[C@H](Cc1c[nH]cn1)NC(=O)[C@@H]1CSSC[C@H](N)C(=O)N[C@@H](CO)C(=O)N[C@H]2CSSC[C@H](NC(=O)[C@H](CCC(=O)O)NC(=O)[C@H](CCCCN)NC(=O)[C@H](CC(=O)O)NC(=O)[C@H](CCSC)NC(=O)[C@H](CC(C)C)NC(=O)[C@H](CO)NC(=O)[C@H](CO)NC2=O)C(=O)N[C@@H](C(C)C)C(=O)N[C@@H](Cc2ccc(O)cc2)C(=O)N[C@@H](Cc2ccccc2)C(=O)N1)C(=O)N[C@H](C(=O)N[C@@H](Cc1c[nH]c2ccccc12)C(=O)O)[C@@H](C)CC` [endothelin-1], the “ETAR localization after endothelin-1 stimulation” value in experiment [2] is reported as “internalization of the fluorescent ETAR into an intracellular peri-centriolar compartment”. Moreover, the EC50 in experiment [2] (read-out: EC50 of endothelin stimulation (ETAR-EGFP internalization)) is 3.4 nM.

(Values after patent publication US20090117598A1, “Method for identifying compounds that affect a transport of a protein through a membrane trafficking pathway” (priority 2004, published 2009).)
